# Patent publication US7262297B2, “Diaminopyrroloquinazolines compounds as protein tyrosine phosphatase inhibitors” (Hoffmann-La Roche Inc., priority 2003, dated 2007)
# Molecular target: T1, Human PTP1B (1-321) (Homo sapiens, UniProt P18031)
# T1 construct: Human PTP1B (1-321) was cloned from a human cDNA library; made in house; host or cells: E. coli
# T1 sequence (P18031 1-321): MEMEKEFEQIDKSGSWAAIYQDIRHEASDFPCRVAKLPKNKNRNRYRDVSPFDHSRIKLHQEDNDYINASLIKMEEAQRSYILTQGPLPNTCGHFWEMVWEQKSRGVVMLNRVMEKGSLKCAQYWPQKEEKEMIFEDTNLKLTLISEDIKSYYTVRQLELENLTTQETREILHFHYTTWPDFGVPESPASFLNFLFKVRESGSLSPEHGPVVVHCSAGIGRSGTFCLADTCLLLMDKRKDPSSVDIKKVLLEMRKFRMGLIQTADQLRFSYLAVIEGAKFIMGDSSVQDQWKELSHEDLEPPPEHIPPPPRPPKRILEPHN
# Test: In vitro inhibition of PTP1B (PTPase assay, Malachite Green / DiFMUP)
# Type: biochemical
# Conditions: read-out: IC50 (μM), PTP1B inhibitory activity
# Experimental: Human PTP1B (1-321) was cloned from a human cDNA library using conventional molecular biology techniques. The cDNA sequence was identical to the published human PTP1B sequence (Accession number M33689). The protein was expressed and purified from E. coli as described by Barford D. et.al, J. Mol Biol (1994) 239,726-730).
# The measurement of PTPase activity was carried out using one of two methods:
# The first method for the measurement of PTP1B inhibitory activity a tyrosine phosphorylated peptide based on the amino acid sequence of insulin receptor tyrosine autophosphorylation site 1146 (TRDI(pY)E) was used as substrate. The reaction conditions were as follows:
# PTP1B (0.5-2nM ) was incubated with compound for 15 min in buffer containing 37.5 mM Bis-Tris buffer pH 6.2, 140 mMNaCl, 0.05% BSA and 2 mM DTT. The reaction was started by the addition of 50 μM substrate. After 20 min at room temperature (22-25° C.) the reaction was stopped with KOH and the amount of free phosphate measured using Malachite Green as previously described. (Harder et al. 1994 Biochem J. 298; 395).
# The second method was used for the measurement of general PTPase inhibitory activity across a panel of PTPases the substrate (6,8-difluoro-4-methylumbelliferyl phosphate (DiFMUP; from Molecular Probes) was used at the Km for each enzyme. The buffer conditions were identical as in the Malachite Green assay. The reaction was stopped with KOH. In this case the dephosphoryated product becomes fluorescent and the fluorescence read. (Excitiation: […]/Emmission: 460 nM).
row,IC50,Compound
1,23.8 µM,"CCOc1cccc(-c2cc3nc(N)nc(N)c3c3cc[nH]c23)c1 [Example 2, 6-(3-Ethoxy-phenyl)-7H-pyrrolo[3,2-f]quinazoline-1,3-diamine]"
2,89.5 µM,"Nc1nc(N)c2c(cc(-c3cccc([N+](=O)[O-])c3)c3[nH]ccc32)n1 [Example 4, 6-(3-Nitro-phenyl)-7H-pyrrolo[3,2-f]quinazoline-1,3-diamine]"
3,29.2 µM,"Nc1nc(N)c2c(cc(-c3ccc(Cl)s3)c3[nH]ccc32)n1 [Example 6, 6-(5-Chloro-thiophen-2-yl)-7H-pyrrolo[3,2-f]quinazoline-1,3-diamine]"
4,24.1 µM,"Nc1cccc(-c2cc3nc(N)nc(N)c3c3cc[nH]c23)c1 [Example 8, 6-(3-Amino-phenyl)-7H-pyrrolo[3,2-f]quinazoline-1,3-diamine]"
